The NIST ThermoML archive (doi:10.1021/je3013342)
Numbers after ± are expanded uncertainties.

Columns and labels:
[1] = xn = mol fraction of the nth substance listed; details: 101 kPa, Liquid, Vibrating tube method
[2] = 101 kPa, Liquid, Vibrating tube method

## ClCCCl [1,2-dichloroethane] + C[N+](=O)[O-]
[1]; 298.15 K, x1 = 1
  mass density: 1245.59 ± 0.81 kg/m3
[1]; 308.15 K, x1 = 1
  mass density: 1230.96 ± 0.81 kg/m3
[1]; 318.15 K, x1 = 1
  mass density: 1216.16 ± 0.81 kg/m3

## CCCCCCl [1-chloropentane]
[2]; 298.15 K
  mass density: 877.09 ± 0.8 kg/m3
[2]; 308.15 K
  mass density: 866.97 ± 0.8 kg/m3
[2]; 318.15 K
  mass density: 856.73 ± 0.8 kg/m3

## CCCCCl [1-chlorobutane]
[2]; 298.15 K
  mass density: 881.17 ± 0.81 kg/m3
[2]; 308.15 K
  mass density: 870 ± 0.81 kg/m3
[2]; 318.15 K
  mass density: 858.67 ± 0.81 kg/m3

## C[N+](=O)[O-] [nitromethane] + CC(Cl)(Cl)Cl
[1]; 298.15 K, x2 = 0
  mass density: 1130.91 ± 0.93 kg/m3
[1]; 308.15 K, x2 = 0
  mass density: 1117.29 ± 0.92 kg/m3
[1]; 318.15 K, x2 = 0
  mass density: 1103.55 ± 0.91 kg/m3

## ClCCCCl [1,3-dichloropropane] + C[N+](=O)[O-]
[1]; 298.15 K, x1 = 0.0878
  mass density: 1135.58 ± 0.91 kg/m3
[1]; 298.15 K, x1 = 0.1939
  mass density: 1141.34 ± 0.89 kg/m3
[1]; 298.15 K, x1 = 0.2938
  mass density: 1146.79 ± 0.87 kg/m3
[1]; 298.15 K, x1 = 0.3998
  mass density: 1152.41 ± 0.85 kg/m3
[1]; 298.15 K, x1 = 0.5028
  mass density: 1157.65 ± 0.84 kg/m3
[1]; 298.15 K, x1 = 0.6154
  mass density: 1163.15 ± 0.83 kg/m3
[1]; 298.15 K, x1 = 0.7207
  mass density: 1168.07 ± 0.82 kg/m3
[1]; 298.15 K, x1 = 0.8326
  mass density: 1173.04 ± 0.82 kg/m3
[1]; 298.15 K, x1 = 0.9404
  mass density: 1177.55 ± 0.81 kg/m3
[1]; 298.15 K, x1 = 1
  mass density: 1180.1 ± 0.81 kg/m3
[1]; 308.15 K, x1 = 0.0878
  mass density: 1122.12 ± 0.9 kg/m3
[1]; 308.15 K, x1 = 0.1939
  mass density: 1128.05 ± 0.88 kg/m3
[1]; 308.15 K, x1 = 0.2938
  mass density: 1133.64 ± 0.86 kg/m3
[1]; 308.15 K, x1 = 0.3998
  mass density: 1139.39 ± 0.85 kg/m3
[1]; 308.15 K, x1 = 0.5028
  mass density: 1144.76 ± 0.84 kg/m3
[1]; 308.15 K, x1 = 0.6154
  mass density: 1150.38 ± 0.83 kg/m3
[1]; 308.15 K, x1 = 0.7207
  mass density: 1155.41 ± 0.82 kg/m3
[1]; 308.15 K, x1 = 0.8326
  mass density: 1160.49 ± 0.82 kg/m3
[1]; 308.15 K, x1 = 0.9404
  mass density: 1165.1 ± 0.81 kg/m3
[1]; 308.15 K, x1 = 1
  mass density: 1167.7 ± 0.81 kg/m3
[1]; 318.15 K, x1 = 0.0878
  mass density: 1108.53 ± 0.89 kg/m3
[1]; 318.15 K, x1 = 0.1939
  mass density: 1114.63 ± 0.88 kg/m3
[1]; 318.15 K, x1 = 0.2938
  mass density: 1120.37 ± 0.86 kg/m3
[1]; 318.15 K, x1 = 0.3998
  mass density: 1126.26 ± 0.85 kg/m3
[1]; 318.15 K, x1 = 0.5028
  mass density: 1131.76 ± 0.84 kg/m3
[1]; 318.15 K, x1 = 0.6154
  mass density: 1137.51 ± 0.83 kg/m3
[1]; 318.15 K, x1 = 0.7207
  mass density: 1142.65 ± 0.82 kg/m3
[1]; 318.15 K, x1 = 0.8326
  mass density: 1147.84 ± 0.82 kg/m3
[1]; 318.15 K, x1 = 0.9404
  mass density: 1152.56 ± 0.81 kg/m3
[1]; 318.15 K, x1 = 1
  mass density: 1155.21 ± 0.81 kg/m3

## C[N+](=O)[O-] [nitromethane] + ClCCCl
[1]; 298.15 K, x2 = 0
  mass density: 1130.86 ± 0.93 kg/m3
[1]; 298.15 K, x2 = 0.1132
  mass density: 1147.31 ± 0.9 kg/m3
[1]; 298.15 K, x2 = 0.2235
  mass density: 1162.54 ± 0.88 kg/m3
[1]; 298.15 K, x2 = 0.3249
  mass density: 1175.69 ± 0.86 kg/m3
[1]; 298.15 K, x2 = 0.4672
  mass density: 1192.94 ± 0.84 kg/m3
[1]; 298.15 K, x2 = 0.5586
  mass density: 1203.25 ± 0.83 kg/m3
[1]; 298.15 K, x2 = 0.6264
  mass density: 1210.49 ± 0.83 kg/m3
[1]; 298.15 K, x2 = 0.7349
  mass density: 1221.8 ± 0.82 kg/m3
[1]; 298.15 K, x2 = 0.857
  mass density: 1233.37 ± 0.81 kg/m3
[1]; 298.15 K, x2 = 0.923
  mass density: 1239.2 ± 0.81 kg/m3
[1]; 308.15 K, x2 = 0
  mass density: 1117.24 ± 0.92 kg/m3
[1]; 308.15 K, x2 = 0.1132
  mass density: 1133.59 ± 0.9 kg/m3
[1]; 308.15 K, x2 = 0.2235
  mass density: 1148.71 ± 0.87 kg/m3
[1]; 308.15 K, x2 = 0.3249
  mass density: 1161.77 ± 0.86 kg/m3
[1]; 308.15 K, x2 = 0.4672
  mass density: 1178.89 ± 0.84 kg/m3
[1]; 308.15 K, x2 = 0.5586
  mass density: 1189.11 ± 0.83 kg/m3
[1]; 308.15 K, x2 = 0.6264
  mass density: 1196.29 ± 0.82 kg/m3
[1]; 308.15 K, x2 = 0.7349
  mass density: 1207.48 ± 0.82 kg/m3
[1]; 308.15 K, x2 = 0.857
  mass density: 1218.91 ± 0.81 kg/m3
[1]; 308.15 K, x2 = 0.923
  mass density: 1224.67 ± 0.81 kg/m3
[1]; 318.15 K, x2 = 0
  mass density: 1103.5 ± 0.91 kg/m3
[1]; 318.15 K, x2 = 0.1132
  mass density: 1119.73 ± 0.89 kg/m3
[1]; 318.15 K, x2 = 0.2235
  mass density: 1134.75 ± 0.87 kg/m3
[1]; 318.15 K, x2 = 0.3249
  mass density: 1147.71 ± 0.85 kg/m3
[1]; 318.15 K, x2 = 0.4672
  mass density: 1164.69 ± 0.84 kg/m3
[1]; 318.15 K, x2 = 0.5586
  mass density: 1174.81 ± 0.83 kg/m3
[1]; 318.15 K, x2 = 0.6264
  mass density: 1181.96 ± 0.82 kg/m3
[1]; 318.15 K, x2 = 0.7349
  mass density: 1192.99 ± 0.82 kg/m3
[1]; 318.15 K, x2 = 0.857
  mass density: 1204.28 ± 0.81 kg/m3
[1]; 318.15 K, x2 = 0.923
  mass density: 1209.97 ± 0.81 kg/m3
